The source of these data is US4496551A (priority 1983, dated 1985).

Holding throughout (type): in vivo
Experiment [1] has as its system Erysiphe cichoracearum. The experiment is described as follows: cucumber powdery mildew control on cucumber seedlings. The conditions noted are these: 7 days; for pest or weed control at 100 ppm: Golovinomyces cichoracearum, 168 h. The protocol:
Compounds of the previous examples were again dissolved in acetone in an amount equal to 6% of the final volume and then suspended at a concentration of 100 ppm in purified water containing 250 ppm of the surfactant TREM 014 (polyhydric alcohol esters). This suspension was sprayed to the point of run-off on cucumber seedlings. The following day, the plants were inoculated with a spore suspension of the fungus Erysiphe cichoracearum, causal agent of cucumber powdery mildew, and incubated in a growth room for 7 days. Disease ratings were then made. Treated plants from successful treatments had little or no powdery mildew in contrast to untreated plants which were covered with powdery mildew.

For experiment [2], the system named is Pyricularia oryzae. The experiment is described as follows: whole plant or invertebrate. To be noted: 168 h, read-out: % Control of Rice Blast.
In experiment [3] the test system is Rhizoctonia solani. As to the kind of experiment: rice sheath blight control on rice seedlings. To be noted: 7 days; for pest or weed control at 100 ppm: Rhizoctonia solani, 168 h. On the procedure:
Several compounds of the previous examples were again dissolved in acetone in an amount equal to 6% of the final volume and then suspended at a concentration of 100 ppm in purified water containing 250 ppm of the surfactant TREM 014 (polyhydric alcohol esters). This suspension was sprayed to the point of run-off on rice seedlings. The following day, the plants were inoculated with a mixture of bran and the mycelium of Rhizoctonia solani, causal agent of sheath blight of rice, and incubated in a growth room for 7 days. Disease ratings were then made. Treated plants from successful treatments had little sheath blight in contrast to untreated plants which were covered with sheath blight.

Experiment [4] relates to Venturia inaequalis. As to the kind of experiment: apple scab control on apple seedlings. The conditions noted are these: 100 ppm; for pest or weed control at 100 ppm: Venturia inaequalis. The protocol: Compounds of this invention were dissolved in acetone in an amount equal to 6% of the final volume and then suspended at a concentration of 100 ppm in purified water containing 250 ppm of the surfactant TREM 014 (polyhydric alcohol esters). This suspension was sprayed to the point of run-off on apple seedlings. The following day, the plants were inoculated with a spore suspension of the fungus Venturia inaequalis, causal agent of apple scab, and incubated in a saturated humidity chamber at 20° for 24 hours and then in a growth room for an additional 10-12 days. Treated plants from successful treatments had few or no apple scab lesions when compared to untreated plants which were covered with scab lesions.

The test system of experiment [5] is Cercospora arachidicola. As to the kind of experiment: peanut early leafspot control on peanut seedlings. To be noted: for pest or weed control at 100 ppm: Mycosphaerella arachidis, 336 h. On the procedure:
Compounds of the previous examples were again dissolved in acetone in an amount equal to 6% of the final volume and then suspended at a concentration of 100 ppm in purified water containing 250 ppm of the surfactant TREM 014 (polyhydric alcohol esters). This suspension was sprayed to the point of run-off on peanut seedlings. The following day, the plants were inoculated with a spore suspension of Cercospora arachidicola, causal agent of peanut early leafspot, and incubated in a saturated humidity chamber at 27° for 24 hours and then in a growth room for an additional 14 days, when disease ratings were made. Treated plants from successful treatments had few or no leafspots while the untreated plants had numerous leafspots on each leaf.

Experiment [6] relates to Phytophthora infestans. The experiment is described as follows: whole plant or invertebrate. The conditions noted are these: for pest or weed control at 100 ppm: Phytophthora infestans, in Solanum lycopersicum, 168 h, read-out: % Control of Tomato Late Blight.
Experiment [7] deals with Helminthosporium maydis. As to the kind of experiment: southern corn leaf blight control on corn seedlings. To be noted: for pest or weed control at 100 ppm: Bipolaris maydis, 168 h. The protocol:
Compounds of the previous example were again dissolved in acetone in an amount equal to 6% of the final volume and then suspended at a concentration of 100 ppm in purified water containing 250 ppm of the surfactant TREM 014 (polyhydric alcohol esters). This suspension was sprayed to the point of run-off on corn seedlings. The following day, the plants were inoculated with a spore suspension of Helminthosporium maydis, causal agent of southern corn leaf blight, and incubated in a saturated humidity chamber at 20° for 24 hours and then in a growth room for an additional 7 days, when disease ratings were made. Treated plants from successful treatments had few lesions while the untreated plants had numerous lesions on each leaf.

The subject of experiment [8] is Puccinia recondita var. tritici. As to the kind of experiment: wheat leaf rust control on wheat seedlings. The conditions noted are these: 100 ppm, sprayed day before inoculation. On the procedure:
Compounds of this invention were dissolved in acetone in an amount equal to 6% of the final volume and then suspended at a concentration of 100 ppm in purified water containing 250 ppm of the surfactant TREM 014 (polyhydric alcohol esters). This suspension was sprayed to the point of run-off on wheat seedlings. The following day, the plants were inoculated with a spore suspension of Puccinia recondita var. tritici, causal agent of wheat leaf rust, and incubated in a saturated humidity chamber at 20° for 24 hours and then in a growth room for an additional 7 days, when disease ratings were made. Treated plants from successful treatments had few or no rust pustules while the untreated plants had numerous rust pustules on each leaf.

Turning to `O[Si](Cn1ccnc1)(c1ccc(F)cc1)c1ccc(F)cc1` [bis(4-Fluorophenyl)hydroxy(1H-imidazol-1-ylmethyl)silane], the pest or weed control at 100 ppm in experiment [1] worked out at 100%; in experiment [2], 60%; in experiment [3], 90%; in experiment [4], 0%; in experiment [5], 50%; in experiment [6] it was 0%. Besides, the values for the pest or weed control at 100 ppm in experiment [7] and in experiment [8] were 0% and 100%, respectively.

With `C[Si](C)(Cn1ccnc1)c1ccc(S(C)(=O)=O)cc1` [Dimethyl(1H-imidazol-1-ylmethyl)(4-methylsulfonylphenyl)silane], the pest or weed control at 100 ppm in experiment [1] was 0%; in experiment [2], 100%; in experiment [3] it was 0%; in experiment [4], 80%; in experiment [5], 0%; in experiment [6], 0%. For the same compound, the pest or weed control at 100 ppm in experiment [7] and in experiment [8] was 0% throughout.

Regarding `CC(n1ccnc1)[Si](C)(c1ccc(F)cc1)c1ccc(F)cc1` (stereo not drawn) [bis(4-Fluorophenyl)methyl[1-(1H-imidazol-1-yl)ethyl]silane], the pest or weed control at 100 ppm amounted to 100% in experiment [1]; 0% in experiment [2]; 90% in experiment [3]; 100% in experiment [4]; 0% in experiment [5]; 0% in experiment [6]. The compound also registered a pest or weed control at 100 ppm in experiment [8] of 0%.

Consider `CSc1ccc([Si](C)(C)Cn2ccnc2)cc1` [Dimethyl(1H-imidazol-1-ylmethyl)(4-methylthiophenyl)silane], for which the pest or weed control at 100 ppm was found to be 100% in experiment [1]; 0% in experiment [2]; 0% in experiment [3]; 0% in experiment [4]; 0% in experiment [5]; 0% in experiment [6]. In addition, the pest or weed control at 100 ppm in experiment [7] and in experiment [8] was 0% throughout.

On to `C[Si](Cn1ccnc1)(c1ccccc1)c1ccc(Br)cc1` (stereo not drawn) [(4-Bromophenyl)(1H-imidazol-1-ylmethyl)methyl(phenyl)silane], for which the pest or weed control at 100 ppm in experiment [1] came out at 100%; in experiment [2], 0%; in experiment [3] it was 0%; in experiment [4], 30%; in experiment [5] it was 90%; in experiment [6], 0%. Also, the figures for the pest or weed control at 100 ppm in experiment [7] and in experiment [8] were 0% and 90%, respectively.

With `CC(C)O[Si](C)(Cn1ccnc1)c1ccccc1` (stereo not drawn) [(1H-Imidazol-1-ylmethyl)methyl(phenyl)(2-propoxy)silane], the pest or weed control at 100 ppm in experiment [1] came out at 90%; in experiment [2], 0%; in experiment [3] it was 0%; in experiment [4], 0%; in experiment [5], 0%; in experiment [6], 0%. The pest or weed control at 100 ppm in experiment [7] and in experiment [8] was 0% each time.

`COc1cccc([Si](C)(C)Cn2ccnc2)c1OC` [(2,3-Dimethoxyphenyl)(1H-imidazol-1-ylmethyl)dimethylsilane]: the pest or weed control at 100 ppm in experiment [1] is 100%; in experiment [2], 0%; in experiment [3] it was 0%; in experiment [4], 0%; in experiment [5], 0%; in experiment [6], 0%. Also, the pest or weed control at 100 ppm in experiment [7] and in experiment [8] was 0% each time.

With `CC(C)(C)c1ccc([Si](C)(C)Cn2ccnc2)cc1` [[4-(1,1-Dimethylethyl)phenyl](1H-imidazol-1-ylmethyl)dimethylsilane], the pest or weed control at 100 ppm in experiment [1] stood at 80%; in experiment [2], 80%; in experiment [3], 0%; in experiment [4], 50%; in experiment [5], 0%; in experiment [6] it was 0%. The pest or weed control at 100 ppm in experiment [7] is 70%; in experiment [8], 0%.

`C[Si](C)(Cn1ccnc1)c1ccc(-c2ccc(Br)cc2)cc1` [(4'-Bromo-1,1'-biphenyl-4-yl)dimethyl(1H-imidazol-1-ylmethyl)silane]: the pest or weed control at 100 ppm was 100% in experiment [1]; 90% in experiment [2]; 90% in experiment [3]; 50% in experiment [4]; 90% in experiment [5]; 0% in experiment [6]. The figures for the pest or weed control at 100 ppm in experiment [7] and in experiment [8] were 0% and 100%, respectively.

`C[Si](C)(Cn1ccnc1)c1ccc(-c2ccccc2)cc1.[Cl][Cu]` [1:1 complex of (1,1'-Biphenyl-4-yl)dimethyl(1H-imidazol-1-ylmethyl)silane and Cuprous Chloride]: the “% Control Cucumber Powdery Mildew” value in experiment [1] (100 ppm) is 100%. For the same compound, in experiment [3] (100 ppm), the “% Control of Rice Sheath Blight” value stood at 50%. For the same compound, the “% Control Apple Scab” value in experiment [4] is 100%. The “% Control Peanut Early Leafspot” value in experiment [5] (100 ppm) was determined as 100%. For the same compound, the “% Control of Tomato Late Blight” value in experiment [6] (100 ppm) was found to be 0%. Besides, in experiment [7] (100 ppm), the “% Control of Southern Corn Leaf Blight” value was 0%. Moreover, the “% Control Wheat Leaf Rust” value in experiment [8] was 100%.

On to `C[Si](Cn1ccnc1)(c1ccc(F)cc1)c1ccc(-c2ccccc2)cc1` (stereo not drawn) [(1,1'-Biphenyl-4-yl)(4-fluorophenyl)(1H-imidazol-1-ylmethyl)methylsilane], for which the pest or weed control at 100 ppm in experiment [1] is 100%; in experiment [3], 0%; in experiment [4] it was 50%; in experiment [5], 100%; in experiment [6], 0%; in experiment [7], 70%. The compound further registered a pest or weed control at 100 ppm in experiment [8] of 80%.

For `CC(C)O[Si](Cn1ccnc1)(OC(C)C)c1ccccc1` [(1H-Imidazol-1-ylmethyl)phenylbis(2-propoxy)silane], the pest or weed control at 100 ppm in experiment [1] was found to be 0%; in experiment [3], 0%; in experiment [4], 70%; in experiment [5], 0%; in experiment [6] it was 0%; in experiment [7] it was 0%. Moreover, the pest or weed control at 100 ppm in experiment [8] stood at 0%.

`C[Si](Cn1ccnc1)(c1ccc(Cl)cc1)c1ccccc1Cl` (stereo not drawn) [(2-Chlorophenyl)(4-chlorophenyl)(1H-imidazol-1-ylmethyl)methylsilane]: the pest or weed control at 100 ppm in experiment [1] was found to be 100%; in experiment [3], 0%; in experiment [4] it was 80%; in experiment [5] it was 80%; in experiment [6], 0%; in experiment [7], 0%. Also, in experiment [8], the pest or weed control at 100 ppm was found to be 100%.
